Key:
basil 'Genovese' [1] = assay: Content analysis of basil: protein, minerals (Example 4, Tables 10-11); format: in vivo; conditions: 28 DA-A
Outline: (§1)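 Plants were harvested about 4 weeks post-treatment and pooled across replicates to analyse protein, amino acids, fiber, fatty acids and minerals (Na, Ca, P, Mg, K, Fe, Mn, Zn, Cu). Treatments were postemergence insecticide, fungicide, PGRs and safeners. Visual injury scored 0–100% (phytotoxicity, chlorosis, stunting).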

kale 'Red Russian' = assay: Visual injury of kale after insecticide, fungicide, PGRs, safeners (Example 4)
Procedure: (§2) Greenhouse and laboratory studies were conducted to ascertain the tolerance and nutritional quality differences following postemergence applications of the insecticide chlorpyrifos, the fungicide chlorothalonil, the PGRs mepiquat-chloride and paclobutrazol, and the safeners napthalic anhydride and isoxadifen-ethyl on kale ‘Red Russian’ and basil ‘Genovese’. Visual injury was rated based on general phytotoxicity, chlorosis, and visual stunting and each measurement was based on a percent scale from 0 to 100 where 0 equals no visual response and 100 equals complete plant death. Kale and basil were both harvested approximately 4 weeks after treatments and plants were pooled over replicates for content analysis of crude protein, crude amino acid content, acid detergent fiber, neutral detergent fiber, total fatty acids, and/or key mineral content (including Na, Ca, P, Mg, K, Fe, Mn, Zn, and Cu). In addition, the amounts of key individual amino acids (aspartic acid, threonine, glutamic acid, proline, glycine, cysteine, valine, leucine, isoleucine, methionine, and lysine) and composite classifications of fatty acid (saturated fatty acids, monounsaturated fatty acids, polyunsaturated fatty acids) were also analyzed from these sub-samples for kale (Tables 10-14).

kale ‘Red Russian’ = assay: Yield, fresh weight of kale after insecticide, fungicide and PGRs (Example 4, Table 12); format: in vivo; conditions: 28 DA-A, Untreated Check 106.9
Procedure: as §2

basil 'Genovese' [2] = assay: Visual injury of basil after insecticide, fungicide, PGRs, safeners (Example 4)
Outline: as §1

[3] = rates g ai/ha: chlroprifos 3370, chlorothalonil 7900, paclobutrazol 9.7, mepiquat-chloride 37, Isoxadifen 16, Napthalic anhydride 527, + NIS 0.25 % v/v
[4] = rates g ai/ha: chlropyrifos 1120, chlorothalonil 2630, paclobutrazol 3.23, mepiquat-chloride 12.3, Isoxadifen 8, Napthalic anhydride 264, + NIS 0.25 % v/v
[5] = 7 DA-A, rates g ai/ha: chlropyrifos 1120, chlorothalonil 2630, paclobutrazol 3.23, mepiquat-chloride 12.3, + NIS 0.25 % v/v
[6] = 7 DA-A, rates g ai/ha: chlropyrifos 3370, chlorothalonil 7900, paclobutrazol 9.7, mepiquat-chloride 37, + NIS 0.25 % v/v
[7] = 14 DA-A, rates g ai/ha: chlropyrifos 1120, chlorothalonil 2630, paclobutrazol 3.23, mepiquat-chloride 12.3, + NIS 0.25 % v/v
[8] = 14 DA-A, rates g ai/ha: chlropyrifos 3370, chlorothalonil 7900, paclobutrazol 9.7, mepiquat-chloride 37, + NIS 0.25 % v/v
[9] = 28 DA-A, rates g ai/ha: chlropyrifos 1120, chlorothalonil 2630, paclobutrazol 3.23, mepiquat-chloride 12.3, + NIS 0.25 % v/v
[10] = 28 DA-A, rates g ai/ha: chlropyrifos 3370, chlorothalonil 7900, paclobutrazol 9.7, mepiquat-chloride 37, + NIS 0.25 % v/v
[11] = 7 DA-A, rates g ai/ha: chlropyrifos 1120, chlorothalonil 2630, paclobutrazol 3.23, mepiquat-chloride 12.3, Isoxadifen 8, Napthalic anhydride 264, + NIS 0.25 % v/v
[12] = 7 DA-A, rates g ai/ha: chlropyrifos 3370, chlorothalonil 7900, paclobutrazol 9.7, mepiquat-chloride 37, Isoxadifen 16, Napthalic anhydride 527, + NIS 0.25 % v/v
[13] = 14 DA-A, rates g ai/ha: chlropyrifos 1120, chlorothalonil 2630, paclobutrazol 3.23, mepiquat-chloride 12.3, Isoxadifen 8, Napthalic anhydride 264, + NIS 0.25 % v/v
[14] = 14 DA-A, rates g ai/ha: chlropyrifos 3370, chlorothalonil 7900, paclobutrazol 9.7, mepiquat-chloride 37, Isoxadifen 16, Napthalic anhydride 527, + NIS 0.25 % v/v
[15] = 28 DA-A, rates g ai/ha: chlropyrifos 1120, chlorothalonil 2630, paclobutrazol 3.23, mepiquat-chloride 12.3, Isoxadifen 8, Napthalic anhydride 264, + NIS 0.25 % v/v
[16] = 28 DA-A, rates g ai/ha: chlropyrifos 3370, chlorothalonil 7900, paclobutrazol 9.7, mepiquat-chloride 37, Isoxadifen 16, Napthalic anhydride 527, + NIS 0.25 % v/v

Structure (SMILES): C[N+]1(C)CCCCC1 [mepiquat-chloride]
- NDF, Percent Increase Over the Untreated Check (on a % dry matter basis) (basil 'Genovese' [1]; [3]): −11 % check
- Phosphorous, Percent Increase Over the Untreated Check (on a % dry matter basis) (basil 'Genovese' [1]; [3]): 26 % check
- Potassium, Percent Increase Over the Untreated Check (on a % dry matter basis) (basil 'Genovese' [1]; [3]): −3 % check
- Protein, Percent Increase Over the Untreated Check (on a % dry matter basis) (basil 'Genovese' [1]; [3]): 7 % check
- Sodium, Percent Increase Over the Untreated Check (on a % dry matter basis) (basil 'Genovese' [1]; [3]): 8 % check
- Soluble protein, Percent Increase Over the Untreated Check (on a % dry matter basis) (basil 'Genovese' [1]; [3]): 27 % check
- Zinc, Percent Increase Over the Untreated Check (on a % dry matter basis) (basil 'Genovese' [1]; [3]): 53 % check
- ADF, Percent Increase Over the Untreated Check (on a % dry matter basis) (basil 'Genovese' [1]; [4]): 7 % check
- Calcium, Percent Increase Over the Untreated Check (on a % dry matter basis) (basil 'Genovese' [1]; [4]): 2 % check
- Copper, Percent Increase Over the Untreated Check (on a % dry matter basis) (basil 'Genovese' [1]; [4]): 0 % check
- Iron, Percent Increase Over the Untreated Check (on a % dry matter basis) (basil 'Genovese' [1]; [4]): 14 % check
- Magnesium, Percent Increase Over the Untreated Check (on a % dry matter basis) (basil 'Genovese' [1]; [4]): 0 % check
- Manganese, Percent Increase Over the Untreated Check (on a % dry matter basis) (basil 'Genovese' [1]; [4]): 61 % check
- NDF, Percent Increase Over the Untreated Check (on a % dry matter basis) (basil 'Genovese' [1]; [4]): −8 % check
- Phosphorous, Percent Increase Over the Untreated Check (on a % dry matter basis) (basil 'Genovese' [1]; [4]): 13 % check
- Potassium, Percent Increase Over the Untreated Check (on a % dry matter basis) (basil 'Genovese' [1]; [4]): −4 % check
- Protein, Percent Increase Over the Untreated Check (on a % dry matter basis) (basil 'Genovese' [1]; [4]): 13 % check
- Sodium, Percent Increase Over the Untreated Check (on a % dry matter basis) (basil 'Genovese' [1]; [4]): −8 % check
- Soluble protein, Percent Increase Over the Untreated Check (on a % dry matter basis) (basil 'Genovese' [1]; [4]): 89 % check
- Zinc, Percent Increase Over the Untreated Check (on a % dry matter basis) (basil 'Genovese' [1]; [4]): 34 % check
- Phytotoxicity Chlorosis (kale 'Red Russian'; [5]): 0%
- Phytotoxicity General (kale 'Red Russian'; [5]): 9%
- Phytotoxicity Stunting (kale 'Red Russian'; [5]): 4%
- Phytotoxicity Chlorosis (kale 'Red Russian'; [6]): 0%
- Phytotoxicity General (kale 'Red Russian'; [6]): 10%
- Phytotoxicity Stunting (kale 'Red Russian'; [6]): 1%
- Phytotoxicity Chlorosis (kale 'Red Russian'; [7]): 15%
- Phytotoxicity General (kale 'Red Russian'; [7]): 1%
- Phytotoxicity Stunting (kale 'Red Russian'; [7]): 16%
- Phytotoxicity Chlorosis (kale 'Red Russian'; [8]): 4%
- Phytotoxicity General (kale 'Red Russian'; [8]): 0%
- Phytotoxicity Stunting (kale 'Red Russian'; [8]): 3%
- Phytotoxicity Chlorosis (kale 'Red Russian'; [9]): 6%
- Phytotoxicity General (kale 'Red Russian'; [9]): 1%
- Phytotoxicity Stunting (kale 'Red Russian'; [9]): 9%
- Phytotoxicity Chlorosis (kale 'Red Russian'; [10]): 3%
- Phytotoxicity General (kale 'Red Russian'; [10]): 3%
- Phytotoxicity Stunting (kale 'Red Russian'; [10]): 10%
- Yield Fresh weight (kale ‘Red Russian’; rates g ai/ha: chlropyrifos 1120, chlorothalonil 2630, paclobutrazol 3.23, mepiquat-chloride 12.3, + NIS 0.25 % v/v): 101.8 grams
- Yield Fresh weight (kale ‘Red Russian’; rates g ai/ha: chlropyrifos 3370, chlorothalonil 7900, paclobutrazol 9.7, mepiquat-chloride 37, + NIS 0.25 % v/v): 101.2 grams
- Phytotoxicity Chlorosis (basil 'Genovese' [2]; [11]): 3%
- Phytotoxicity General (basil 'Genovese' [2]; [11]): 2%
- Phytotoxicity Stunting (basil 'Genovese' [2]; [11]): 3%
- Phytotoxicity Chlorosis (basil 'Genovese' [2]; [12]): 5%
- Phytotoxicity General (basil 'Genovese' [2]; [12]): 2%
- Phytotoxicity Stunting (basil 'Genovese' [2]; [12]): 5%
- Phytotoxicity Chlorosis (basil 'Genovese' [2]; [13]): 7%
- Phytotoxicity General (basil 'Genovese' [2]; [13]): 5%
- Phytotoxicity Stunting (basil 'Genovese' [2]; [13]): 3%
- Phytotoxicity Chlorosis (basil 'Genovese' [2]; [14]): 2%
- Phytotoxicity General (basil 'Genovese' [2]; [14]): 5%
- Phytotoxicity Stunting (basil 'Genovese' [2]; [14]): 0%
- Phytotoxicity Chlorosis (basil 'Genovese' [2]; [15]): 2%
- Phytotoxicity General (basil 'Genovese' [2]; [15]): 2%
- Phytotoxicity Stunting (basil 'Genovese' [2]; [15]): 2%
- Phytotoxicity Chlorosis (basil 'Genovese' [2]; [16]): 2%
- Phytotoxicity General (basil 'Genovese' [2]; [16]): 0%
- Phytotoxicity Stunting (basil 'Genovese' [2]; [16]): 0%

— patent US20110053773A1, “METHODS OF IMPROVING NUTRITIONAL VALUE OF PLANTS” (UNIVERSITY OF TENNESSEE RESEARCH FOUNDATION, priority 2009, published 2011)
